This is an account of results in patent US4622319A, “Methods of using PAF-antagonistic diazepines” (Boehringer Ingelheim KG, priority 1984, dated 1986).

In this experiment the test system is PAF-induced aggregation of human thrombocytes. As to the kind of experiment: Inhibition of PAF-induced blood platelet aggregation in vitro. It counts as cell-based. As to conditions: human thrombocyte-rich plasma, aggregation induced with PAF 5×10^-8 M, concentration giving 50% inhibition of aggregation, read-out: PAF-Antag. IC50. Here is the method:
1. Inhibition of blood platelet aggregation in vitro
The PAF-induced aggregation of human thrombocytes in vitro is used to determine PAF-antagonistic activity. To obtain thrombocyte-rich plasma (TRP), blood is taken from an uncongested vein using a plastic syringe containing 3.8% sodium citrate solution. The ratio of sodium citrate solution to blood is 1:9. After careful mixing the citrate blood is centrifuged for 20 minutes at 150 g (1200 rpm). The thrombocyte aggregation is measured using the method devised by Born and Cross (G. V. R. Born and M. J. Cross, J. Physiol. 168, 178 (1963)), by adding an aggregation initiator (PAF) to the TRP with constant stirring.
The test substance is added 2 to 3 minutes before aggregation is initiated in a volume of 10 μl. Either distilled water, ethanol and/or dimethylsulphoxide (each in suitable concentrations) can be used as solvent.
Control mixtures contain corresponding volumes of these solvents. After the initial absorption has been recorded (2 to 3 minutes) aggregation is induced with PAF (5×10^-8 M).
The maximum of the first aggregation wave is used to assess the effects of the substance. The PAF-induced maximum absorption rate (=maximum aggregation×100%) is tested at the same time in a parallel mixture (=control mixture in one of the channels of the two-channel aggregometer) as each test mixture (second channel) and is used as a 100% value.
The aggregation value attained under the effect of the test substance is given as a percentage of the control value, i.e. less than 100% in the case of an inhibition of aggregation and over 100% in the case of an increase.
Each test substance is investigated at concentrations of from 10^-3 to 10^-8 M with a random sampling of n=4 with regard to an inhibitory effect on the PAF-induced thrombocyte aggregation. Then a concentration-activity curve is drawn up using 3 concentrations and the IC50 is determined (concentration giving a 50% inhibition of aggregation).
For `CN1C(=O)CC(=O)N(c2ccccc2)c2cc(C(F)(F)F)ccc21` [Compound 2, Triflubazam, reference compound], the IC50 was determined as 200 µM.

As for `CN1C(=O)CC(=O)N(c2ccccc2Cl)c2cc(Cl)ccc21` [Compound 5], the IC50 amounted to 220 µM.

Turning to `CCN1CCC(=O)N(c2ccccc2)c2cnccc21` [Compound 15], the IC50 is over 100 µM.

With `COc1ccccc1N1C(=O)CC(=O)N(C)c2ccc(Cl)cc21` [Compound 8], the IC50 was 290 µM.

For the molecule `O=C1CC(=O)N(c2ccccc2)c2cc(Br)ccc2N1`, the IC50 is 470 µM.

With `O=C1CCN(CCO)c2ccc(Cl)cc2N1c1ccccc1` [Compound 14], the IC50 worked out at 285 µM.

As to `CCN1C(=O)CC(=O)N(c2ccccc2)c2cc(Cl)ccc21` [Compound 4], the IC50 was found to be 98 µM.

`CN1C(=O)CC(=O)N(c2ccccc2Cl)c2cc([N+](=O)[O-])ccc21` [Compound 10]: the IC50 is 310 µM.

In the case of `CN1C(=O)CC(=O)N(c2ccccc2)c2cnccc21` [Compound 16], the IC50 was over 50 µM.

For the molecule `CN1C(=O)CC(=O)N(c2ccccc2F)c2ccccc21` [Compound 7], the IC50 worked out at 96 µM.

As to `CC1C(=O)Nc2ccc(Br)cc2N(c2ccccc2)C1=O` (centres unmarked) [Compound 12], the IC50 came out at 350 µM.

As for `CN1C(=O)CC(=O)N(c2ccccc2)c2ccc(Cl)cc21` [Compound 11], the IC50 worked out at 210 µM.

Take `CN1C(=O)CC(=O)N(c2ccccc2C(F)(F)F)c2cc(Cl)ccc21` [Compound 6]: the IC50 is 66 µM.

For the molecule `CN1CCC(=O)N(c2ccccc2)c2cc(Br)ccc21` [Compound 13], the IC50 is over 1000 µM.

For `CCn1nc(C)c2c1N(c1ccccc1)C(=O)CC(=O)N2` [Compound 17], the IC50 was over 100 µM.

Take `CN1C(=O)CC(=O)N(c2ccccc2)c2cc(Cl)ccc21` [Compound 1, Clobazam, reference compound]: the IC50 was determined as 250 µM.

Take `CN1C(=O)CC(=O)N(c2ccccn2)c2cc(Br)ccc21` [Compound 9]: the IC50 was over 1000 µM.
